Measurements: paper PMC10451623 (Antioxidants, 2023)

Key:
PPARα-LBD = target: T1, PPARα-LBD (Homo sapiens, UniProt Q07869); assay: TR-FRET PGC1α coactivator recruitment assay; format: biochemical; parameters: Human PPARα-LBD (amino acids 200–468); made in house; host or cells: Rosetta (DE3) pLysS (E. coli); conditions: PGC1α peptide, read-out: EC50, PGC1α recruitment to PPARα-LBD
T1 sequence (Q07869 200-468): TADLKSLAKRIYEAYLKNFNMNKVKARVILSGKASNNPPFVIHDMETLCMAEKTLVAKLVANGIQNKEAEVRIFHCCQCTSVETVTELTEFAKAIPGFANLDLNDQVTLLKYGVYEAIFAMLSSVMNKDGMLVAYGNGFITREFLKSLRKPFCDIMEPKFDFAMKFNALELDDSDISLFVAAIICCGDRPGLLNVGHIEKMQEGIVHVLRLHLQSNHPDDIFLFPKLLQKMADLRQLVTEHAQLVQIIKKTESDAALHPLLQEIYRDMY
Experimental: (§1) Subsequently, 5 µL of 4 nM Eu-W1024-labeled anti-6×His antibody/80 nM ULight-Streptavidin (PerkinElmer) was added to each well, and the microplate was incubated in the dark for 2 h, at room temperature. […] The nonlinear fitting and the calculation of the EC50 were performed using the Prism 9 software (GraphPad, San Diego, CA, USA).
(§2) The ligand-bound activated forms of PPARs are stabilized by associations with specific coactivators, thereby enabling the regulation of specific gene expression.
(§3) Figure 2 TR-FRET-based LBD-mediated human PPARα/δ/γ coactivator recruitment assay. […] Data are presented as the mean ± SE of three or four independent experiments with duplicate samples, and the calculated EC50 values are shown.

human PPARα = target: T2, human PPARα (Homo sapiens, UniProt Q07869); assay: Transactivation assay (GAL4–hPPARα-LBD chimera, luciferase reporter, COS-7 cells); format: cell-based; conditions: for Emax: 100% = 1 µM GW7647, read-out: Efficacy, PPARα transactivation (% of the maximal response); for EC50: GAL4–hPPARα-LBD
T2 construct: expressed in transfected cells; host or cells: COS-7
T2 sequence (Q07869 239-466 limits assumed): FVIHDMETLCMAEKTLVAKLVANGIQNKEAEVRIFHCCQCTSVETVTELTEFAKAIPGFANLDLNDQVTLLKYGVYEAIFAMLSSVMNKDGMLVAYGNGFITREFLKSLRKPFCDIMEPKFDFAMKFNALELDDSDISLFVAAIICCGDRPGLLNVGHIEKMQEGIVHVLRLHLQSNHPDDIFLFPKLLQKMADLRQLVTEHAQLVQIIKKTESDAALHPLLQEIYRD
Experimental: (§4) The pSG5-GAL–hPPARα/δ/γ plasmids express fusion proteins comprising the yeast transcription factor GAL4 DNA-binding domain and each of the human PPARα/δ/γ-LBDs. The MH100(UAS)×4-tk-Luc plasmid contains four copies of the MH100 GAL4 binding site and the Firefly luciferase gene. The cells were transfected with those plasmids and were treated with various PPAR ligands, and both Firefly and Renilla luciferase activities were measured using the Dual-Glo Luciferase Assay System (Promega, Madison, WI, USA) as described previously. […] GW1929 was purchased from Sigma-Aldrich (St. Louis, MO, USA).
(§5) For the undertaking of the comparison of the potency, efficacy, and selectivity of the five PPAR ligands (Figure 1A) against the PPAR subtypes, we evaluated their PPARα/δ/γ activation using three different methods: a cell-based transactivation assay, a coactivator recruitment assay, and a thermal stability assay, as we previously performed on three fibrates (namely, bezafibrate, fenofibric acid, and pemafibrate). The cell-based transactivation assay utilizing the Gal4–PPAR-LBD system is the most widely used method for the determination of PPAR activation by certain ligands, although their responses depend on the used cell types in which several coactivators with altered functions are differentially expressed.
(§6) Figure 1 LBD-mediated human PPARα/δ/γ transactivation by PPAR ligands. (A) Chemical structures of the five PPAR ligands used in this study. […] Data are presented as the mean ± standard error (SE) of three independent experiments with duplicate samples.

human PPARγ = target: T3, human PPARγ (Homo sapiens, UniProt P37231); assay: Transactivation assay (GAL4–hPPARγ-LBD chimera, luciferase reporter, COS-7 cells); format: cell-based; conditions: for Emax: 100% = 1 µM GW1929, read-out: Efficacy, PPARγ transactivation (% of the maximal response); for EC50: GAL4–hPPARγ-LBD
T3 construct: expressed in transfected cells; host or cells: COS-7
T3 sequence (P37231 238-503 limits assumed): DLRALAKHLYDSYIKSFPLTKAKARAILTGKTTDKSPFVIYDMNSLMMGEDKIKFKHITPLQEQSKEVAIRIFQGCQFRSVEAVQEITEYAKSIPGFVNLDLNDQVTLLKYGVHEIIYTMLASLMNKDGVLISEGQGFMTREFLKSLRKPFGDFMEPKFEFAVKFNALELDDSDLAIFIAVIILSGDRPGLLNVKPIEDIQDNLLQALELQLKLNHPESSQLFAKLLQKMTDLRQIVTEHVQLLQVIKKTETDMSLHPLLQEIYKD
Experimental: as §4, §5, §6

PPARδ-LBD = target: T4, PPARδ-LBD (Homo sapiens, UniProt Q03181); assay: TR-FRET SRC1 coactivator recruitment assay; format: biochemical; parameters: PPARδ-LBD (amino acids 170–441); made in house; host or cells: Rosetta (DE3) pLysS (E. coli); conditions: for EC50: TR-FRET, SRC1 peptide, read-out: EC50, SRC1 recruitment to PPARδ-LBD
T4 sequence (Q03181 170-441): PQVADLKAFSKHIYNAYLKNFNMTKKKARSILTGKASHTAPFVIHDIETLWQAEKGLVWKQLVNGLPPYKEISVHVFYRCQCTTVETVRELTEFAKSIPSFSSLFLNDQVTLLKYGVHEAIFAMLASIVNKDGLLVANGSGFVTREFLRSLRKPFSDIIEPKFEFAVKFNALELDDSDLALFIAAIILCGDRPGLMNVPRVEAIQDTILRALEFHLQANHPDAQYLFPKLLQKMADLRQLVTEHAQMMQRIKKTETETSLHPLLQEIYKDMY
Experimental: as §1, §2, §3

EC50 (PPARα-LBD) | Emax (human PPARα) | EC50 (human PPARα) | Emax (human PPARγ) | EC50 (human PPARγ) | EC50 (PPARδ-LBD) | Efficacy, SRC1 recruitment to PPARδ-LBD (PPARδ-LBD; 100% = 1 µM GW501516) | SMILES
6.93 µM | 38.5% | 0.388 µM | 38.5% | 2.12 µM |  |  | CSc1ccc(C(=O)/C=C/c2cc(C)c(OC(C)(C)C(=O)O)c(C)c2)cc1 [elafibranor]
10 µM | 13.3% | 4.66 µM | 24.9% | 0.572 µM | 4.44 µM |  | O=C(O)CCCc1cc2cc(Cl)ccc2n1S(=O)(=O)c1ccc2ncsc2c1 [lanifibranor]
4.11 µM | 56.4% | 0.19 µM | 89.4% | 0.311 µM | > 100 µM |  | CCO[C@@H](Cc1ccc(OCCn2c(C)ccc2-c2ccc(SC)cc2)cc1)C(=O)O [saroglitazar]
3.84 µM | 41% | 1.64 µM | 58.5% | 3.53 µM | 0.111 µM | 83.0% | CCO[C@H](COc1ccc(C(F)(F)F)cc1)CSc1ccc(OCC(=O)O)c(C)c1 [seladelpar]
